Data: PMC6364417, “Kinase inhibitor library screening identifies synergistic drug combinations effective in sensitive and resistant melanoma cells” (Journal of Experimental & Clinical Cancer Research : CR, 2019)

Key:
Experiment in all cases: Kinase inhibitor library screening, PrestoBlue cell viability, 1 or 10 μM, 72 h
[1] = system: 501Mel-XP cells (Vemurafenib-resistant); conditions: 501Mel XP
[2] = system: A375-GP cells (Dabrafenib-resistant); conditions: A375 GP
IGR37 cells (parental) = conditions: IGR37 Parental
A375 cells (parental) = conditions: A375 Parental
[3] = system: IGR37-XP cells (Vemurafenib-resistant); conditions: IGR37 XP
[4] = system: 501Mel-GP cells (Dabrafenib-resistant); conditions: 501Mel GP
[5] = system: IGR37-GP cells (Dabrafenib-resistant); conditions: IGR37 GP
501Mel cells (parental) = conditions: 501Mel Parental
Method in brief: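 PrestoBlue viability readout after 72 h exposure to each inhibitor at 1 or 10 μM, reported relative to untreated cells as % viability. Lines tested: sensitive parental plus derivatives resistant to Vemurafenib (XP) or Dabrafenib (GP), each run at least in duplicate.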

[6] = system: A375-XP cells (Vemurafenib-resistant); conditions: A375 XP

CCCS(=O)(=O)Nc1ccc(F)c(C(=O)c2c[nH]c3ncc(Cl)cc23)c1F [PLX-4720]
Cell viability in kinase inhibitor library screening, 501Mel XP, 1μΜ ([1]; 1μΜ, 72 h, in %): 96.2 | Cell viability in kinase inhibitor library screening, 501Mel XP, 10μΜ ([1]; 10μΜ, 72 h, in %): 64.4 | Cell viability in kinase inhibitor library screening, A375 GP, 1μΜ ([2]; 1μΜ, 72 h): 83.9 | Cell viability in kinase inhibitor library screening, A375 GP, 10μΜ ([2]; 10μΜ, 72 h): 78.1 | Cell viability in kinase inhibitor library screening, IGR37 Parental, 1μΜ (IGR37 cells (parental); 1μΜ, 72 h, in %): 44.1 | Cell viability in kinase inhibitor library screening, IGR37 Parental, 10μΜ (IGR37 cells (parental); 10μΜ, 72 h, in %): 31.4 | Cell viability in kinase inhibitor library screening, A375 Parental, 10μΜ (A375 cells (parental); 10μΜ, 72 h): 14.6 | Cell viability in kinase inhibitor library screening, A375 Parental, 1μΜ (A375 cells (parental); 1μΜ, 72 h): 32.1 | Cell viability in kinase inhibitor library screening, IGR37 XP, 10μΜ ([3]; 10μΜ, 72 h): 52.5% | Cell viability in kinase inhibitor library screening, IGR37 XP, 1μΜ ([3]; 1μΜ, 72 h, in %): 99.4 | Cell viability in kinase inhibitor library screening, 501Mel GP, 1μΜ ([4]; 1μΜ, 72 h, in %): 104.7 | Cell viability in kinase inhibitor library screening, 501Mel GP, 10μΜ ([4]; 10μΜ, 72 h, in %): 77.9 | Cell viability in kinase inhibitor library screening, IGR37 GP, 10μΜ ([5]; 10μΜ, 72 h): 79% | Cell viability in kinase inhibitor library screening, IGR37 GP, 1μΜ ([5]; 1μΜ, 72 h, in %): 97.0 | Cell viability in kinase inhibitor library screening, 501Mel Parental, 1μΜ (501Mel cells (parental); 1μΜ, 72 h, in %): 63.2 | Cell viability in kinase inhibitor library screening, 501Mel Parental, 10μΜ (501Mel cells (parental); 10μΜ, 72 h, in %): 55.8 | Cell viability in kinase inhibitor library screening, A375 XP, 1μΜ ([6]; 1μΜ, 72 h): 102.9 | Cell viability in kinase inhibitor library screening, A375 XP, 10μΜ ([6]; 10μΜ, 72 h): 79.1

COc1cc(Nc2c(C#N)cnc3cc(OCCCN4CCN(C)CC4)c(OC)cc23)c(Cl)cc1Cl [Bosutinib (SKI-606)]
cell viability (kinase inhibitor library screening) ([1]; 1μΜ, in %): 103.1 | cell viability (kinase inhibitor library screening) ([1]; 10μΜ, in %): -0.2 | cell viability (kinase inhibitor library screening) ([2]; 1μΜ, in %): 85.6 | cell viability (kinase inhibitor library screening) ([2]; 10μΜ, in %): 32.7 | cell viability (kinase inhibitor library screening) (IGR37 cells (parental); 1μΜ, in %): 97.3 | cell viability (kinase inhibitor library screening) (IGR37 cells (parental); 10μΜ, in %): 1.8 | cell viability (kinase inhibitor library screening) (A375 cells (parental); 1μΜ, in %): 80.1 | cell viability (kinase inhibitor library screening) (A375 cells (parental); 10μΜ, in %): 39.3 | cell viability (kinase inhibitor library screening) ([3]; 1μΜ, in %): 98.8 | cell viability (kinase inhibitor library screening) ([3]; 10μΜ, in %): 4.2 | cell viability (kinase inhibitor library screening) ([4]; 1μΜ, in %): 91.9 | cell viability (kinase inhibitor library screening) ([4]; 10μΜ, in %): -0.266 | cell viability (kinase inhibitor library screening) ([5]; 1μΜ, in %): 95.0 | cell viability (kinase inhibitor library screening) ([5]; 10μΜ, in %): 20.7 | cell viability (kinase inhibitor library screening) (501Mel cells (parental); 1μΜ, in %): 98.4 | cell viability (kinase inhibitor library screening) (501Mel cells (parental); 10μΜ, in %): 0.645 | cell viability (kinase inhibitor library screening) ([6]; 1μΜ, in %): 83.7 | cell viability (kinase inhibitor library screening) ([6]; 10μΜ, in %): 30.5

O=c1cc(-c2cccc3c2Sc2ccccc2S3)oc(N2CCOCC2)c1 [KU-55933]
cell viability (kinase inhibitor library screening) ([1]; 1μΜ, 72 h): 87.7% | cell viability (kinase inhibitor library screening) ([1]; 10μΜ, 72 h): 65.9% | cell viability (kinase inhibitor library screening) ([2]; 1μΜ, 72 h): 92.9% | cell viability (kinase inhibitor library screening) ([2]; 10μΜ, 72 h): 89.1% | cell viability (kinase inhibitor library screening) (IGR37 cells (parental); 1μΜ, 72 h): 113.8% | cell viability (kinase inhibitor library screening) (IGR37 cells (parental); 10μΜ, 72 h): 80.4% | cell viability (kinase inhibitor library screening) (A375 cells (parental); 10μΜ, 72 h): 90.0% | cell viability (kinase inhibitor library screening) (A375 cells (parental); 1μΜ, 72 h): 105.8% | cell viability (kinase inhibitor library screening) ([3]; 1μΜ, 72 h): 105.2% | cell viability (kinase inhibitor library screening) ([3]; 10μΜ, 72 h): 34.9% | cell viability (kinase inhibitor library screening) ([4]; 1μΜ, 72 h): 98.9% | cell viability (kinase inhibitor library screening) ([4]; 10μΜ, 72 h): 76.6% | cell viability (kinase inhibitor library screening) ([5]; 1μΜ, 72 h): 98.2% | cell viability (kinase inhibitor library screening) ([5]; 10μΜ, 72 h): 67.8% | cell viability (kinase inhibitor library screening) (501Mel cells (parental); 10μΜ, 72 h): 90.2% | cell viability (kinase inhibitor library screening) ([6]; 1μΜ, 72 h): 104.1% | cell viability (kinase inhibitor library screening) ([6]; 10μΜ, 72 h): 92.4%

COc1cc2c(Nc3ccc(NC(=O)c4ccccc4)cc3)ncnc2cc1OCCCN1CCOCC1 [ZM-447439]
cell viability (kinase inhibitor library screening) ([1]; 1μΜ, 72 h): 90.5% | cell viability (kinase inhibitor library screening) ([1]; 10μΜ, 72 h): -0.26% | cell viability (kinase inhibitor library screening) ([2]; 1μΜ, 72 h): 79.5% | cell viability (kinase inhibitor library screening) ([2]; 10μΜ, 72 h): 52.0% | cell viability (kinase inhibitor library screening) (IGR37 cells (parental); 1μΜ, 72 h): 103.7% | cell viability (kinase inhibitor library screening) (IGR37 cells (parental); 10μΜ, 72 h): 54.6% | cell viability (kinase inhibitor library screening) (A375 cells (parental); 10μΜ, 72 h): 56.3% | cell viability (kinase inhibitor library screening) (A375 cells (parental); 1μΜ, 72 h): 76.7% | cell viability (kinase inhibitor library screening) ([3]; 1μΜ, 72 h): 95.9% | cell viability (kinase inhibitor library screening) ([3]; 10μΜ, 72 h): 24.7% | cell viability (kinase inhibitor library screening) ([4]; 1μΜ, 72 h): 104.5% | cell viability (kinase inhibitor library screening) ([4]; 10μΜ, 72 h): 2.3% | cell viability (kinase inhibitor library screening) ([5]; 1μΜ, 72 h): 96.5% | cell viability (kinase inhibitor library screening) ([5]; 10μΜ, 72 h): 69.7% | cell viability (kinase inhibitor library screening) (501Mel cells (parental); 1μΜ, 72 h): 90.8% | cell viability (kinase inhibitor library screening) (501Mel cells (parental); 10μΜ, 72 h): 7.6% | cell viability (kinase inhibitor library screening) ([6]; 1μΜ, 72 h): 88.7% | cell viability (kinase inhibitor library screening) ([6]; 10μΜ, 72 h): 65.2%

COc1cc2/c(=N/c3ccc(Br)cc3F)nc[nH]c2cc1OCC1CCN(C)CC1 [Vandetanib (Zactima)]
cell viability (kinase inhibitor library screening) ([1]; 1μΜ, in %): 89.6 | cell viability (kinase inhibitor library screening) ([1]; 10μΜ, in %): -0.445 | cell viability (kinase inhibitor library screening) ([2]; 1μΜ, in %): 98.8 | cell viability (kinase inhibitor library screening) ([2]; 10μΜ, in %): 19.2 | cell viability (kinase inhibitor library screening) (IGR37 cells (parental); 1μΜ, in %): 96.5 | cell viability (kinase inhibitor library screening) (IGR37 cells (parental); 10μΜ, in %): 11.2 | cell viability (kinase inhibitor library screening) (A375 cells (parental); 1μΜ, in %): 98.6 | cell viability (kinase inhibitor library screening) (A375 cells (parental); 10μΜ, in %): 48.0 | cell viability (kinase inhibitor library screening) ([3]; 1μΜ, in %): 94.5 | cell viability (kinase inhibitor library screening) ([3]; 10μΜ, in %): 3.2 | cell viability (kinase inhibitor library screening) ([4]; 10μΜ, in %): 0.0201 | cell viability (kinase inhibitor library screening) ([5]; 1μΜ, in %): 93.4 | cell viability (kinase inhibitor library screening) ([5]; 10μΜ, in %): 31.3 | cell viability (kinase inhibitor library screening) (501Mel cells (parental); 1μΜ, in %): 98.8 | cell viability (kinase inhibitor library screening) (501Mel cells (parental); 10μΜ, in %): 0.4 | cell viability (kinase inhibitor library screening) ([6]; 1μΜ, in %): 103.0 | cell viability (kinase inhibitor library screening) ([6]; 10μΜ, in %): 39.3

COC(=O)Nc1ccc(-c2nc(N3CCOCC3)c3cnn(C4CCN(Cc5cccnc5)CC4)c3n2)cc1 [WYE-687]
Cell viability in kinase inhibitor library screening, 501Mel XP, 1μΜ ([1]; 1μΜ, 72 h, in %): 83.5 | Cell viability in kinase inhibitor library screening, 501Mel XP, 10μΜ ([1]; 10μΜ, 72 h, in %): 7.5 | Cell viability in kinase inhibitor library screening, A375 GP, 1μΜ ([2]; 1μΜ, 72 h): 67.7 | Cell viability in kinase inhibitor library screening, A375 GP, 10μΜ ([2]; 10μΜ, 72 h): 19.9 | Cell viability in kinase inhibitor library screening, IGR37 Parental, 1μΜ (IGR37 cells (parental); 1μΜ, 72 h, in %): 75.9 | Cell viability in kinase inhibitor library screening, IGR37 Parental, 10μΜ (IGR37 cells (parental); 10μΜ, 72 h, in %): 26.2 | Cell viability in kinase inhibitor library screening, A375 Parental, 10μΜ (A375 cells (parental); 10μΜ, 72 h): 21.5 | Cell viability in kinase inhibitor library screening, A375 Parental, 1μΜ (A375 cells (parental); 1μΜ, 72 h): 74.1 | Cell viability in kinase inhibitor library screening, IGR37 XP, 10μΜ ([3]; 10μΜ, 72 h): 7% | Cell viability in kinase inhibitor library screening, IGR37 XP, 1μΜ ([3]; 1μΜ, 72 h, in %): 62.5 | Cell viability in kinase inhibitor library screening, 501Mel GP, 1μΜ ([4]; 1μΜ, 72 h, in %): 55.7 | Cell viability in kinase inhibitor library screening, 501Mel GP, 10μΜ ([4]; 10μΜ, 72 h, in %): 10.7 | Cell viability in kinase inhibitor library screening, IGR37 GP, 10μΜ ([5]; 10μΜ, 72 h): 24.9% | Cell viability in kinase inhibitor library screening, IGR37 GP, 1μΜ ([5]; 1μΜ, 72 h, in %): 77.7 | Cell viability in kinase inhibitor library screening, 501Mel Parental, 1μΜ (501Mel cells (parental); 1μΜ, 72 h, in %): 65.3 | Cell viability in kinase inhibitor library screening, 501Mel Parental, 10μΜ (501Mel cells (parental); 10μΜ, 72 h, in %): 9.6 | Cell viability in kinase inhibitor library screening, A375 XP, 1μΜ ([6]; 1μΜ, 72 h): 59.8 | Cell viability in kinase inhibitor library screening, A375 XP, 10μΜ ([6]; 10μΜ, 72 h): 19.2
